Holding throughout (assay type): biochemical
One assay has as its target T1, Collagenase (Homo sapiens, UniProt P03956).
T1 sequence (P03956 100-469): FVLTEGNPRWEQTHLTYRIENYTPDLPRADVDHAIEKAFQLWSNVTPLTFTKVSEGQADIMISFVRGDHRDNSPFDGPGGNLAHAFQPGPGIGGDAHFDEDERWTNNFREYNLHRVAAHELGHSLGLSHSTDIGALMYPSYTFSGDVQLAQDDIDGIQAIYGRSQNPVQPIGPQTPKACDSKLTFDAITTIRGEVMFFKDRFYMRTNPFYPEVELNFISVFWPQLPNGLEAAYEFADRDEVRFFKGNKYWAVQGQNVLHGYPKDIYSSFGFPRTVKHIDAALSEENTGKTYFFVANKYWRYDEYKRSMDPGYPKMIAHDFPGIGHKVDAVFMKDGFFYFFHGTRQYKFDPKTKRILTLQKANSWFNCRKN
In words: Enzyme inhibition assay (peptide substrate Dnp-Pro-Leu-Gly-Leu-Trp-Ala-D-Arg-NH2, Trp fluorescence), collagenase. Particulars: pH 7.5, overnight, Ki (app) assumed to approximate true Ki.

The target of the next assay is T2, Gelatinase-72KD (Homo sapiens, UniProt P08253).
T2 sequence (P08253 110-660): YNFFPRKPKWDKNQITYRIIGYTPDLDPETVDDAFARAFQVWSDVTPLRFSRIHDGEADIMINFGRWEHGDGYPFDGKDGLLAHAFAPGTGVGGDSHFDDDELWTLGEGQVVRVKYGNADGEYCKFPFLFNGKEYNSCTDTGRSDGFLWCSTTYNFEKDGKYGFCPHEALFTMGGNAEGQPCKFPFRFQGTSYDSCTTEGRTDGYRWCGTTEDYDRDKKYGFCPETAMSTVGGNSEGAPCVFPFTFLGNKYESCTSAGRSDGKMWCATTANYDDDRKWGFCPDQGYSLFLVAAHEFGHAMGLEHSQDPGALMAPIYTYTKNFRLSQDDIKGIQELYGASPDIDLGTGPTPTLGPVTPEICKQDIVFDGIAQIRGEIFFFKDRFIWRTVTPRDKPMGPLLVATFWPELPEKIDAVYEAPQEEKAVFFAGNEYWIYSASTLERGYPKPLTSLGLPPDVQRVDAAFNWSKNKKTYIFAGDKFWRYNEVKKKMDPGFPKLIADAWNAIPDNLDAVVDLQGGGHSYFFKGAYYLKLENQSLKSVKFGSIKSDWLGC
In words: Enzyme inhibition assay (peptide substrate Dnp-Pro-Leu-Gly-Leu-Trp-Ala-D-Arg-NH2, Trp fluorescence), gelatinase. Particulars: pH 7.5, overnight; true Ki from plot of Ki (app) vs. [S], y-axis intercept.

The target in another assay is Stromelysin-1 (Homo sapiens, UniProt P08254). In words: Enzyme inhibition assay (peptide substrate Dnp-Pro-Leu-Gly-Leu-Trp-Ala-D-Arg-NH2, Trp fluorescence), stromelysin. The following applies: pH 7.5, overnight, Ki (app) assumed to approximate true Ki.
Chain of Stromelysin-1 (P08254 100-477, species assumed): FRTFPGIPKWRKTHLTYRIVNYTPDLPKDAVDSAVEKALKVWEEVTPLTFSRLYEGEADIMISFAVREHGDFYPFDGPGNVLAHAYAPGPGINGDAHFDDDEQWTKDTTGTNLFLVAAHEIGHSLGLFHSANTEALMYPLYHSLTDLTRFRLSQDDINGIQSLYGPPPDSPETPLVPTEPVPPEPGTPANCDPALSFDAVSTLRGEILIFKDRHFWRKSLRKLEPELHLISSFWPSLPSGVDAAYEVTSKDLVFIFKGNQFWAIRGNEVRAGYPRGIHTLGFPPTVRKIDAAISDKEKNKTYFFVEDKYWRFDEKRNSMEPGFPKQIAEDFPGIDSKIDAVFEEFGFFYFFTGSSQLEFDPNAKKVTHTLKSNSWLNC
Setting [1] is: value printed in μM in the cell.

Source text for Collagenase: (§1) The enzymes cleave at the Gly-Leu bond which can be followed fluorimetrically by measuring the increase in Trp fluorescence emission associated with the removal of the quenching dinitrophenol (Dnp) group.
(§2) Ki values can be established using the equation for tight-being inhibition: [formula] where Vo is the initial rate of reaction in the absence of inhibitor, Vi is the initial rate in the presence of inhibitor, [E] is the total enzyme concentration and [I] the total inhibitor concentration in the reaction mixture.
(§3) For stromelysin and collagenase, Ki (app) was assumed to approximate to the true Ki as [S]<<Km for the substrate hydrolysis. For gelatinase the Ki was determined by performing the analyses at several substrate concentrations. A plot of Ki (app) vs. [S] then gave the true Ki as the value of the y-axis intercept.
Source text for Gelatinase-72KD: as §1, §2, §3
Source text for Stromelysin-1: as §1, §2, §3

In the case of `NS(=O)(=O)c1ccc(CCNC(=O)[C@H](CC2CCCCC2)NC(=O)[C@H](CCCc2ccccc2)CC(=O)NO)cc1` [Example 6, [4-(N-Hydroxyamino)-2R-phenylpropylsuccinyl]-L-β-cyclohexyalanine-N-(2-(p-sulphonamidophenyl)ethyl) amide], the Ki on Collagenase was 0.15 µM; at Gelatinase-72KD it was 0.025 nM; on Stromelysin-1 it was 0.00592 µM.
The like results for `O=C(C[C@@H](CCCc1ccccc1)C(=O)N[C@@H](CC1CCCCC1)C(=O)NCCCN1CCOCC1)NO` [Example 12, [4-(N-Hydroxyamino)-2R-phenylpropylsuccinyl]-L-β-cyclohexylalanine-N-[3(4-morpholinyl)propyl] amide] were, in that order, 0.21 µM, 0.14 nM and 0.0248 µM.
Turning to `O=C(O)C[C@@H](CCCc1ccccc1)C(=O)N[C@@H](CC1CCCCC1)C(=O)NCCc1ccccc1` [Example 15, [4-Hydroxy-2(R)-(3-phenylpropyl)succinnyl]-L-β-cyclohexylalanine-(N-2-phenylethyl) amide], at Stromelysin-1, the Ki amounted to 0.842 µM.
In the case of `COC(=O)CCNC(=O)[C@H](CC1CCCCC1)NC(=O)[C@H](CCCc1ccccc1)CC(=O)O` [Example 16, [4-Hydroxy-2(R)-(3-phenylpropyl)succinyl]-L-β-cyclohexylalanine-β-alanine methyl ester], the Ki was 57 µM on Collagenase (setting [1]), 6 nM on Gelatinase-72KD and 1.47 µM at Stromelysin-1 (setting [1]).
